Assay results: patent US8088812B2, “Sigma receptor inhibitors” (Laboratorios Del Dr. Esteve, S.A., priority 2006, dated 2012)

Legend:
σ1-receptor = target: T1, σ1-receptor (Cavia porcellus, UniProt Q60492); assay: Sigma-1 receptor binding assay, [3H](+)-pentazocine, brain membranes; conditions: guinea pig brain membranes
T1 construct: guinea pig brains are homogenized; from tissue; host or cells: guinea pig brain membranes
Procedure: Brain membrane preparation and binding assays for the σ1-receptor are performed as described (DeHaven-Hudkins et al., 1992) with some modifications. In brief, guinea pig brains are homogenized in 10 vols. (w/v) of Tris-HCl 50 mM 0.32 M sucrose, pH 7.4, with a Kinematica Polytron PT 3000 at 15000 r.p.m. for 30 s. The homogenate is centrifuged at 1000 g for 10 min at 4° C. and the supernatants collected and centrifuged again at 48000 g for 15 min at 4° C. The pellet is resuspended in 10 volumes of Tris-HCl buffer (50 mM, pH 7.4), incubated at 37° C. for 30 min, and centrifuged at 48000 g for 20 min at 4° C. Following this, the pellet is resuspended in fresh Tris-HCl buffer (50 mM, pH 7.4) and stored on ice until use.
Each assay tube contains 10 μL of [^3H](+)-pentazocine (final concentration of 0.5 nM), 900 μL of the tissue suspension to a final assay volume of 1 mL and a final tissue concentration of approximately 30 mg tissue net weight/mL. Non-specific binding is defined by addition of a final concentration of 1 μM haloperidol. All tubes are incubated at 37° C. for 150 min before termination of the reaction by rapid filtration over Schleicher & Schuell GF 3362 glass fibre filters [previously soaked in a solution of 0.5% polyethylenimine for at least 1 h]. Filters are then washed four times with 4 mL of cold Tris-HCl buffer (50 mM, pH 7.4). Following addition of scintillation cocktail, the samples are allowed to equilibrate overnight. The amount of bound radioactivity is determined by liquid scintillation spectrometry using a Wallac Winspectral 1414 liquid scintillation counter. Protein concentrations are determined by the method of Lowry et al. (1951).

[1] = tested on: capsaicin-induced allodynia; assay: Von Frey filaments in a model of capsaicin-induced allodynia; format: in vivo; conditions: mice, percent analgesia compared to control, mechanical stimulus after capsaicin injection into paw
Procedure: This model is described in detail in the experimental part of WO 2006/010587 A1, examples 1 and 2, the description being included here by reference. Capsaicin is thereby injected into experimental animals to produce acute pain followed by allodynia.
Briefly after habituation mice were first treated with the test-compound (or not in controls). Then capsaicin (1% DMSO) is injected into their paw resulting in developing pain in the effected paw. The effected paw is then treated with a mechanical stimulus and the latency time before the paw is withdrawn is measured.
The results obtained for examples 5, 6 and 8 are shown in table (II) as percent analgesia compared to control achieved at […] 16 mg/kg i.p.

T1 sequence (Q60492 whole entry): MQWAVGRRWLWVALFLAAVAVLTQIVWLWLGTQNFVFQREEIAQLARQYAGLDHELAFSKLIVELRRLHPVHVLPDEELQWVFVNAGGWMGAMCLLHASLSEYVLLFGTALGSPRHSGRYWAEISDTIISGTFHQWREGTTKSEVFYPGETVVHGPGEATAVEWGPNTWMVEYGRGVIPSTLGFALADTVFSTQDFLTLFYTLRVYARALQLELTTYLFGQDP

SMILES	melting point	Ki (σ1-receptor)	Analgesia (16 mg/kg), i.p. % [1]
CCN(CC)CCOc1ccn(C(C)(C)C)n1.O=C(O)C(=O)O	96 to 98 °C		
CC(C)(C)n1ccc(OCCN2CCCCC2)n1.O=C(O)C(=O)O [Example 2, 1-[2-(1-tert-butyl-1H-pyrazol-3-yloxy)ethyl]piperidine oxalate]	123 to 126 °C		
CC(C)(C)n1ccc(OCCN2CCCC2)n1.O=C(O)C(=O)O [Example 4, 1-tert-butyl-3-[2-(pyrrolidin-1-yl)ethoxy]-1H-pyrazole oxalate]	82 to 88 °C		
O=C(O)C(=O)O.c1cn(C2CCCCC2)nc1OCCN1CCOCC1 [Example 5, 4-(2-(1-cyclohexyl-1H-pyrazol-3-yloxy)ethyl)morpholine oxalate]	135 to 140 °C	4.1 ± 0.1 nM	20%
O=C(O)C(=O)O.c1cn(C2CCCCC2)nc1OCCN1CCCCC1 [Example 6, 1-(2-(1-cyclohexyl-1H-pyrazol-3-yloxy)ethyl)piperidine oxalate]	105 to 110 °C	1 ± 0.3 nM	70%
CCN(CC)CCOc1ccn(C2CCCCC2)n1.O=C(O)C(=O)O [Example 7, 2-(1-cyclohexyl-1H-pyrazol-3-yloxy)-N,N-diethylethanamine oxalate]	85 to 90 °C		
O=C(O)C(=O)O.c1cn(C2CCCCC2)nc1OCCN1CCCC1 [Example 8, 1-Cyclohexyl-3-(2-(pyrrolidin-1-yl)ethoxy)-1H-pyrazole oxalate]	117 to 119 °C	2.5 nM	65%
O=C(O)C(=O)O.c1ccc(C2CCN(CCOc3ccn(C4CCCCC4)n3)CC2)cc1 [Example 11, 1-(2-(1-Cyclohexyl-1H-pyrazol-3-yloxy)ethyl)-4-phenylpiperidine oxalate]	122 to 128 °C	8.6 nM	
